From PubChem BioAssay (NCI)
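Test compounds were applied to cells in 96-well plates for 48 hours at 5 doses. TGI marks complete inhibition of growth.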

Columns and labels:
Experiment in all cases: growth of human tumour cells (NCI), 48 h
786-0 renal = system: 786-0 renal
A498 renal = system: A498 renal
A549 NSCLC = system: A549 NSCLC
ACHN renal = system: ACHN renal
CAKI-1 renal = system: CAKI-1 renal
CCRF-CEM leukemia = system: CCRF-CEM leukemia
COLO 205 colon = system: COLO 205 colon
DMS 114 small cell lung = system: DMS 114 small cell lung
DMS 273 small cell lung = system: DMS 273 small cell lung
EKVX NSCLC = system: EKVX NSCLC
HCC-2998 colon = system: HCC-2998 colon
HCT-116 colon = system: HCT-116 colon
HCT-15 colon = system: HCT-15 colon
HL-60(TB) leukemia = system: HL-60(TB) leukemia
HOP-18 NSCLC = system: HOP-18 NSCLC
HOP-62 NSCLC = system: HOP-62 NSCLC
HOP-92 NSCLC = system: HOP-92 NSCLC
HT29 colon = system: HT29 colon
IGROV1 ovarian = system: IGROV1 ovarian
KM12 colon = system: KM12 colon
KM20L2 colon = system: KM20L2 colon
LXFL 529 NSCLC = system: LXFL 529 NSCLC
M14 melanoma = system: M14 melanoma
M19-MEL melanoma = system: M19-MEL melanoma
MALME-3M melanoma = system: MALME-3M melanoma
MOLT-4 leukemia = system: MOLT-4 leukemia
NCI-H226 lung = system: NCI-H226 lung
NCI-H23 lung = system: NCI-H23 lung
NCI-H460 lung = system: NCI-H460 lung
NCI-H522 lung = system: NCI-H522 lung
OVCAR-3 ovarian = system: OVCAR-3 ovarian
OVCAR-4 ovarian = system: OVCAR-4 ovarian
OVCAR-8 ovarian = system: OVCAR-8 ovarian
RXF 393 renal = system: RXF 393 renal
RXF-631 renal = system: RXF-631 renal
SF-268 CNS = system: SF-268 CNS
SF-295 CNS = system: SF-295 CNS
SF-539 CNS = system: SF-539 CNS
SK-MEL-2 melanoma = system: SK-MEL-2 melanoma
SK-MEL-28 melanoma = system: SK-MEL-28 melanoma
SK-MEL-5 melanoma = system: SK-MEL-5 melanoma
SK-OV-3 ovarian = system: SK-OV-3 ovarian
SN12C renal = system: SN12C renal
SNB-19 CNS = system: SNB-19 CNS
SNB-75 CNS = system: SNB-75 CNS
SNB-78 CNS = system: SNB-78 CNS
SR leukemia = system: SR leukemia
SW-620 colon = system: SW-620 colon
TK-10 renal = system: TK-10 renal
U251 CNS = system: U251 CNS
UACC-257 melanoma = system: UACC-257 melanoma
UACC-62 melanoma = system: UACC-62 melanoma
UO-31 renal = system: UO-31 renal
DLD-1 colon = system: DLD-1 colon
K-562 leukemia = system: K-562 leukemia
LOX IMVI melanoma = system: LOX IMVI melanoma
OVCAR-5 ovarian = system: OVCAR-5 ovarian
RPMI-8226 leukemia = system: RPMI-8226 leukemia

Measured: TGI

CC(C)c1ccccc1NC(=O)C(=O)Cc1nc2ccccc2s1
not listed: DLD-1 colon | K-562 leukemia | LOX IMVI melanoma | OVCAR-5 ovarian | RPMI-8226 leukemia
> 100 µM: all other assays above

O=C(CO)CC(=O)C(=O)Nc1nc([N+](=O)[O-])cs1
not listed: HOP-92 NSCLC
> 100 µM: all other assays above
